Patent US9926264B2, “Phenylcarbamate derivatives as formyl peptide receptor modulators” (Allergan, Inc., priority 2013, dated 2018)

Target: T1, FPR2 (Homo sapiens, UniProt P25090)
T1 construct: expressed in transfected cells; host or cells: CHO-Gα16 cells
T1 sequence (P25090 1-351): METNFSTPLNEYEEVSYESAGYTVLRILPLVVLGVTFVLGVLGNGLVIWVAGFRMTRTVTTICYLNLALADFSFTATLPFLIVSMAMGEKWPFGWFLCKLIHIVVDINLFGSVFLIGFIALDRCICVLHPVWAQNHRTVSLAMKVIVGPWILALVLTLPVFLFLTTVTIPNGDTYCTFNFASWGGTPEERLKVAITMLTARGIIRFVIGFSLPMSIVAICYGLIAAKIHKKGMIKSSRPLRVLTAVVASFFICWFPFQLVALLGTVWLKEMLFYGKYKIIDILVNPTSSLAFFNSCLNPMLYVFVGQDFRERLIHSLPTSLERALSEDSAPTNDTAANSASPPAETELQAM
Experiment: compound-induced calcium activity on FLIPR Tetra in CHO-Gα16 cells stably expressing FPR2
Type: cell-based
Conditions: for Emax: efficacy value in brackets after EC50, read-out: FPR2 Gα16-CHO (% eff); for EC50: tested 0.61 to 10,000 nM
Method: CHO-Gα16 cells stably expressing FPR2 were cultured in (F12, 10% FBS, 1% PSA, 400 μg/ml geneticin and 50 μg/ml hygromycin) and HEK-Gqi5 cells stable expressing FPR1 were cultured in (DMEM high glucose, 10% FBS, 1% PSA, 400 μg/ml geneticin and 50 μg/ml hygromycin). In general, the day before the experiment, 18,000 cells/well were plated in a 384-well clear bottom poly-D-lysine coated plate. The following day the screening compound-induced calcium activity was assayed on the FLIPR^Tetra. The drug plates were prepared in 384-well microplates using the EP3 and the MultiPROBE robotic liquid handling systems. Compounds were tested at concentrations ranging from 0.61 to 10,000 nM. Results are expressed as EC50 (nM) and % efficacy values.

Row | Emax | EC50 | SMILES
1 | 107% | 0.66 nM | CC(C)C[C@H](OC(=O)Nc1ccc(C(F)(F)F)cc1)C(=O)N(CC(=O)O)C(C)C [Compound 38, (Isopropyl{(2S)-4-methyl-2-[({[4-(trifluoromethyl)phenyl]amino}carbonyl)oxy]pentanoyl}amino)acetic acid]
2 | 55% | 2190 nM | CC(C)(C)OC(=O)[C@H](Cc1ccccc1)OC(=O)Nc1ccc(Br)cc1 [Intermediate 2a, tert-Butyl (2S)-2-({[(4-bromophenyl)amino]carbonyl}oxy)-3-phenyl propanoate]
3 | 75% | 146 nM | CC(C)C[C@H](OC(=O)Nc1ccc(C(F)(F)F)cc1)C(=O)NCCO [Compound 6, (2S)-1-[(2-Hydroxyethyl)amino]-4-Methyl-1-oxopentan-2-yl [4-(trifluoromethyl)phenyl]carbamate]
4 | 106% | 0.25 nM | CC(C)C[C@H](OC(=O)Nc1ccc(Br)cc1)C(=O)N(C)CC(=O)O [Compound 21, {[(2S)-2-{[(4-Bromophenyl)carbamoyl]oxy}-4-methylpentanoyl](methyl)amino}acetic acid]
5 | 91% | 0.44 nM | CCCN(CC(=O)O)C(=O)[C@H](CC(C)C)OC(=O)Nc1ccc(Br)cc1 [Compound 22, {[(2S)-2-{[(4-Bromophenyl)carbamoyl]oxy}-4-methylpentanoyl](propyl)amino}acetic acid]
6 | 105% | 0.32 nM | CC(C)C[C@H](OC(=O)Nc1ccc(Br)cc1)C(=O)N(CC(=O)O)C(C)C [Compound 23, {[(2S)-2-{[(4-Bromophenyl)carbamoyl]oxy}-4-methylpentanoyl](propan-2-yl)amino}acetic acid]
7 | 89% | 78 nM | CC(C)C[C@H](OC(=O)Nc1ccc(Br)cc1)C(=O)NCCN [Compound 39, (1S)-1-{[(2-aminoethyl)amino]carbonyl}-3-methylbutyl (4-bromophenyl) carbamate]
8 | 103% | 0.83 nM | O=C(Nc1ccc(Br)cc1)O[C@@H](Cc1ccccc1)C(=O)NCc1nnn[nH]1 [Compound 35, (1S)-1-benzyl-2-oxo-2-[(1H-tetrazol-5-ylmethyl)amino]ethyl (4-bromophenyl)carbamate]
9 | 103% | 1.43 nM | O=C(Nc1ccc(Br)cc1)O[C@@H](Cc1ccccc1)C(=O)O [Intermediate 4a, (2S)-2-({[(4-bromophenyl)amino]carbonyl}oxy)-3-phenylpropanoic acid]
10 | 99% | 3.9 nM | CC(C)C[C@H](OC(=O)Nc1ccc(C(F)(F)F)cc1)C(=O)NCC(=O)O [Compound 20, {[(2S)-4-Methyl-2-({[4-(trifluoromethyl)phenyl]carbamoyl}oxy)pentanoyl]amino}acetic acid]
11 | 89% | 526 nM | CC(C)C[C@H](OC(=O)Nc1ccc(Br)cc1)C(=O)NCC(=O)OC(C)(C)C [Compound 1, tert-Butyl {[(2S)-2-{[(4-Bromophenyl)carbamoyl]oxy}-4-methylpentanoyl]amino}acetate]
12 | 103% | 106 nM | CC(C)(C)OC(=O)CNC(=O)[C@H](Cc1ccccc1)OC(=O)Nc1ccc(Br)cc1 [Compound 34, tert-Butyl {[(2S)-2-({[(4-bromophenyl)amino]carbonyl}oxy)-3-phenylpropanoyl]amino}acetate]
13 | 101% | 11.4 nM | CCCN(CC(=O)OC(C)(C)C)C(=O)[C@H](CC(C)C)OC(=O)Nc1ccc(C(F)(F)F)cc1 [Compound 29, tert-Butyl [{(2S)-4-methyl-2-[({[4-(trifluoromethyl)phenyl]amino}carbonyl)oxy]pentanoyl}(propyl)amino]acetate]
14 | 101% | 109 nM | CC(C)C[C@H](OC(=O)Nc1ccc(Br)cc1)C(=O)N(C)CC(=O)OC(C)(C)C [Compound 3, tert-Butyl {[(2S)-2-{[(4-Bromophenyl)carbamoyl]oxy}-4-methylpentanoyl](methyl)amino}acetate]
15 | 104% | 4.4 nM | CCCN(CC(=O)OC(C)(C)C)C(=O)[C@H](CC(C)C)OC(=O)Nc1ccc(Br)cc1 [Compound 9, tert-Butyl {[(2S)-2-{[(4-Bromophenyl)carbamoyl]oxy}-4-methylpentanoyl](propyl)amino}acetate]
16 | 101% | 1.3 nM | CC(C)C[C@H](OC(=O)Nc1ccc(Br)cc1)C(=O)NCc1nnn[nH]1 [Compound 14, (2S)-4-Methyl-1-oxo-1-[(1H-tetrazol-5-ylmethyl)amino]pentan-2-yl (4-bromophenyl)carbamate]
17 | 112% | 2020 nM | CC(C)C[C@H](OC(=O)Nc1ccc(C(F)(F)F)cc1)C(=O)NCC(=O)OC(C)(C)C [Compound 2, tert-Butyl {[(2S)-4-Methyl-2-({[4-(trifluoromethyl)phenyl]carbamoyl}oxy)pentanoyl]amino}acetate]
18 | 98% | 35 nM | CC(C)C[C@H](OC(=O)Nc1ccc(Br)cc1)C(=O)NCCO [Compound 7, (2S)-1-[(2-Hydroxyethyl)amino]-4-methyl-1-oxopentan-2-yl (4-bromophenyl)carbamate]
19 | 98% | 0.41 nM | CN(CC(=O)O)C(=O)[C@H](Cc1ccccc1)OC(=O)Nc1ccc(Br)cc1 [Compound 41, {[(2S)-2-({[(4-Bromophenyl)amino]carbonyl}oxy)-3-phenylpropanoyl](methyl)amino}acetic acid]
20 | 102% | 1.2 nM | CCCN(CC(=O)O)C(=O)[C@H](CC(C)C)OC(=O)Nc1ccc(C(F)(F)F)cc1 [Compound 37, [{(2S)-4-methyl-2-[({[4-(trifluoromethyl)phenyl]amino}carbonyl)oxy]pentanoyl}(propyl)amino]acetic acid]
21 | 100% | 24.8 nM | CC(C)C[C@H](OC(=O)Nc1ccc(C(F)(F)F)cc1)C(=O)N(C)CC(=O)OC(C)(C)C [Compound 12, tert-Butyl {Methyl[(2S)-4-methyl-2-({[4-(trifluoromethyl)phenyl]carbamoyl}oxy)pentanoyl]amino}acetate]
22 | 99% | 8.7 nM | CC(C)C[C@H](OC(=O)Nc1ccc(Br)cc1)C(=O)N(C)CCOS(=O)(=O)O [Compound 27, (2S)-4-Methyl-1-{methyl[2-(sulfooxy)ethyl]amino}-1-oxopentan-2-yl (4-bromophenyl)carbamate]
23 | 85% | 4.3 nM | CC(C)C[C@H](OC(=O)Nc1ccc(C(F)(F)F)cc1)C(=O)NCS(=O)(=O)O [Compound 28, ({(2S)-4-methyl-2-[({[4-(trifluoromethyl)phenyl]amino}carbonyl)oxy]pentanoyl}amino)methanesulfonic acid]
24 | 100% | 0.66 nM | CCN(Cc1nnn[nH]1)C(=O)[C@H](CC(C)C)OC(=O)Nc1ccc(C(F)(F)F)cc1 [Compound 32, (1S)-1-{[ethyl(1H-tetrazol-5-ylmethyl)amino]carbonyl}-3-methylbutyl [4-(trifluoromethyl)phenyl]carbamate]
25 | 95% | 0.24 nM | CCN(CC(=O)O)C(=O)[C@H](CC(C)C)OC(=O)Nc1ccc(Br)cc1 [Compound 24, {[(2S)-2-{[(4-Bromophenyl)carbamoyl]oxy}-4-methylpentanoyl](ethyl)amino}acetic acid]
26 | 98% | 0.29 nM | CCN(CC(=O)O)C(=O)[C@H](CC(C)C)OC(=O)Nc1ccc(C(F)(F)F)cc1 [Compound 26, {Ethyl[(2S)-4-methyl-2-({[4-(trifluoromethyl)phenyl]carbamoyl}oxy)pentanoyl]amino}acetic acid]
27 | 105% | 11.7 nM | CN(CC(=O)OC(C)(C)C)C(=O)[C@H](Cc1ccccc1)OC(=O)Nc1ccc(Br)cc1 [Compound 36, tert-Butyl {[(2S)-2-({[(4-bromophenyl)amino]carbonyl}oxy)-3-phenylpropanoyl](methyl)amino}acetate]
28 | 91% | 2.4 nM | CC(C)C[C@H](OC(=O)Nc1ccc(C(F)(F)F)cc1)C(=O)N(C)Cc1nnn[nH]1 [Compound 17, (2S)-4-methyl-1-[methyl(1H-tetrazol-5-ylmethyl)amino]-1-oxopentan-2-yl [4-(trifluoromethyl)phenyl]carbamate]
29 | 88% | 24.7 nM | CC(C)C[C@H](OC(=O)Nc1ccc(C(F)(F)F)cc1)C(=O)O [Intermediate 4, (2S)-4-Methyl-2-({[4-(Trifluoromethyl)phenyl]carbamoyl}oxy)pentanoic acid]
30 | 98% | 0.81 nM | CC(C)C[C@H](OC(=O)Nc1ccc(Br)cc1)C(=O)N(C)Cc1nnn[nH]1 [Compound 16, (2S)-4-methyl-1-[methyl(1H-tetrazol-5-ylmethyl)amino]-1-oxopentan-2-yl (4-bromophenyl)carbamate]

Row | SMILES | Emax | EC50
31 | CCOP(=O)(CNC(=O)[C@H](CC(C)C)OC(=O)Nc1ccc(C(F)(F)F)cc1)OCC [Compound 5, Diethyl ({[(2S)-4-methyl-2-({[4-(Trifluoromethyl)phenyl]carbamoyl}oxy)pentanoyl]amino}methyl)phosphonate] | 101% | 6.7 nM
